Where “and” joins values, the source holds several entries; their conditions need not be identical. Equal values may be shown once.
Legend:
[1] = test system: Mycosphaerella arachidis (Cercospora arachidicola; MYCOAR); test: Growth inhibition of Mycosphaerella arachidis in nutrient broth, 96-well microtiter plate, photometric at 620 nm; format: cell-based; details: 8 days
From the text: A synergistic effect exists whenever the action of an active ingredient combination is greater than the sum of the actions of the individual components. The action to be expected E for a given active ingredient combination obeys the so-called COLBY formula and can be calculated as follows (COLBY, S. R. “Calculating synergistic and antagonistic responses of herbicide combination”. Weeds, Vol. 15, pages 20-22; 1967): ppm=milligrams of active ingredient (=a.i.) per liter of spray mixture X=% action by active ingredient A) using p ppm of active ingredient Y=% action by active ingredient B) using q ppm of active ingredient. According to COLBY, the expected (additive) action of active ingredients A)+B) using p+q ppm of active ingredient is If the action actually observed (O) is greater than the expected action (E), then the action of the combination is super-additive, i.e. there is a synergistic effect. In mathematical terms, synergism corresponds to a positive value for the difference of (O-E). In the case of purely complementary addition of activities (expected activity), said difference (O-E) is zero. A negative value of said difference (O-E) signals a loss of activity compared to the expected activity. Mycosphaerella arachidis (Cercospora arachidicola; MYCOAR): Conidia of the fungus from cryogenic storage are directly mixed into nutrient broth (PDB potato dextrose broth). After placing a (DMSO) solution of the test compounds into a microtiter plate (96-well format) the nutrient broth containing the fungal spores is added.

[2] = test system: Alternaria solani (ALTESO); test: Growth inhibition of Alternaria solani in nutrient broth, 96-well microtiter plate, photometric; format: cell-based; details: 3 days
From the text: A synergistic effect exists whenever the action of an active ingredient combination is greater than the sum of the actions of the individual components. The action to be expected E for a given active ingredient combination obeys the so-called COLBY formula and can be calculated as follows (COLBY, S. R. “Calculating synergistic and antagonistic responses of herbicide combination”. Weeds, Vol. 15, pages 20-22; 1967): ppm=milligrams of active ingredient (=a.i.) per liter of spray mixture X=% action by active ingredient A) using p ppm of active ingredient Y=% action by active ingredient B) using q ppm of active ingredient. According to COLBY, the expected (additive) action of active ingredients A)+B) using p+q ppm of active ingredient is If the action actually observed (O) is greater than the expected action (E), then the action of the combination is super-additive, i.e. there is a synergistic effect. In mathematical terms, synergism corresponds to a positive value for the difference of (O-E). In the case of purely complementary addition of activities (expected activity), said difference (O-E) is zero. A negative value of said difference (O-E) signals a loss of activity compared to the expected activity. Alternaria solani ([…]): Conidia harvested from a freshly grown colony of the fungus are directly mixed into nutrient broth (PDB potato dextrose broth). After placing a (DMSO) solution of the test compounds into a microtiter plate (96-well format) the nutrient broth containing the fungal spores is added.

[3] = test system: Pyrenophora teres (PYRNTE); test: Growth inhibition of Pyrenophora teres in nutrient broth, 96-well microtiter plate, photometric; format: cell-based; details: 3 days
From the text: A synergistic effect exists whenever the action of an active ingredient combination is greater than the sum of the actions of the individual components. The action to be expected E for a given active ingredient combination obeys the so-called COLBY formula and can be calculated as follows (COLBY, S. R. “Calculating synergistic and antagonistic responses of herbicide combination”. Weeds, Vol. 15, pages 20-22; 1967): ppm=milligrams of active ingredient (=a.i.) per liter of spray mixture X=% action by active ingredient A) using p ppm of active ingredient Y=% action by active ingredient B) using q ppm of active ingredient. According to COLBY, the expected (additive) action of active ingredients A)+B) using p+q ppm of active ingredient is If the action actually observed (O) is greater than the expected action (E), then the action of the combination is super-additive, i.e. there is a synergistic effect. In mathematical terms, synergism corresponds to a positive value for the difference of (O-E). In the case of purely complementary addition of activities (expected activity), said difference (O-E) is zero. A negative value of said difference (O-E) signals a loss of activity compared to the expected activity. Pyrenophora teres ([…]): Conidia of the fungus from cryogenic storage are directly mixed into nutrient broth (PDB potato dextrose broth). After placing a (DMSO) solution of the test compounds into a microtiter plate (96-well format) the nutrient broth containing the fungal spores is added.

[4] = test system: Mycosphaerella graminicola (Septoria tritici; SEPTTR); test: Growth inhibition of Mycosphaerella graminicola in nutrient broth, 96-well microtiter plate, photometric; format: cell-based; details: 4 days
From the text: A synergistic effect exists whenever the action of an active ingredient combination is greater than the sum of the actions of the individual components. The action to be expected E for a given active ingredient combination obeys the so-called COLBY formula and can be calculated as follows (COLBY, S. R. “Calculating synergistic and antagonistic responses of herbicide combination”. Weeds, Vol. 15, pages 20-22; 1967): ppm=milligrams of active ingredient (=a.i.) per liter of spray mixture X=% action by active ingredient A) using p ppm of active ingredient Y=% action by active ingredient B) using q ppm of active ingredient. According to COLBY, the expected (additive) action of active ingredients A)+B) using p+q ppm of active ingredient is If the action actually observed (O) is greater than the expected action (E), then the action of the combination is super-additive, i.e. there is a synergistic effect. In mathematical terms, synergism corresponds to a positive value for the difference of (O-E). In the case of purely complementary addition of activities (expected activity), said difference (O-E) is zero. A negative value of said difference (O-E) signals a loss of activity compared to the expected activity. Mycosphaerella graminicola (Septoria tritici; […]): Conidia of the fungus from cryogenic storage are directly mixed into nutrient broth (PDB potato dextrose broth). After placing a (DMSO) solution of the test compounds into a microtiter plate (96-well format) the nutrient broth containing the fungal spores is added.

[5] = single active ingredient 0.0156 mg/L (ppm ai)
[6] = single active ingredient 0.0625 mg/L (ppm ai)
[7] = single active ingredient 0.125 mg/L (ppm ai)
[8] = single active ingredient 0.0039 mg/L (ppm ai)
[9] = single active ingredient 0.0078 mg/L (ppm ai)
[10] = single active ingredient 0.0313 mg/L (ppm ai)
[11] = single active ingredient 0.25 mg/L (ppm ai)
[12] = single active ingredient 0.5 mg/L (ppm ai)

CC1COC(Cn2cncn2)(c2ccc(Oc3ccc(Cl)cc3)cc2Cl)O1 (centres unmarked) [Difenoconazole, difenoconazole]
Observed control in % (% Cobs) [1, 5]: 66.5% | Observed control in % (% Cobs) [2, 6]: 37.6% | Observed control in % (% Cobs) [2, 7]: 36.9%

Cc1cc(C2CC2)nc(Nc2ccccc2)n1 [Cyprodinil, cyprodinil]
Observed control in % (% Cobs) [3, 6]: 23.8% | Observed control in % (% Cobs) [3, 7]: 45.1%

Cc1nnc(Cl)c(-c2c(F)cccc2Cl)c1-c1ccc(Cl)nc1 [Compound A-1.2, 3-chloro-5-(6-chloro-pyridin-3-yl)-6-methyl-4-(2-chloro-6-fluoro-phenyl)-pyridazine]
melting point: 166 to 167 °C

CN1COCN(Cc2cnc(Cl)s2)/C1=N\[N+](=O)[O-] [Thiomethoxam, thiamethoxam]
Observed control in % (% Cobs) [4, 8]: 1.8% | Observed control in % (% Cobs) [4, 9]: 1.6% | Observed control in % (% Cobs) [4, 5]: 0.0% | Observed control in % (% Cobs) [4, 10]: 2.9% | Observed control in % (% Cobs) [4, 6]: 0.0% | Observed control in % (% Cobs) [3, 6]: 0.0% | Observed control in % (% Cobs) [3, 7]: 0.0% | Observed control in % (% Cobs) [3, 11]: 0.0%

mancozeb
Observed control in % (% Cobs) [2, 11]: 0.7%

N#Cc1c(Cl)c(Cl)c(Cl)c(C#N)c1Cl [Chlorothalonil, chlorothalonil]
Observed control in % (% Cobs) [1, 10]: 7.6% | Observed control in % (% Cobs) [1, 6]: 8.2% | Observed control in % (% Cobs) [1, 7]: 9.9% | Observed control in % (% Cobs) [4, 8]: 3.0% | Observed control in % (% Cobs) [4, 9]: 0.0% | Observed control in % (% Cobs) [4, 5]: 0.7% | Observed control in % (% Cobs) [4, 10]: 0.0%

Cc1nnc(Cl)c(-c2c(F)cc(F)cc2F)c1-c1ccc(Cl)nc1 [Compound A-1.1, 3-chloro-5-(6-chloro-pyridin-3yl)-6-methyl-4-(2,4,6-trifluoro-phenyl)-pyridazine]
Observed control in % (% Cobs) [1, 10]: 6.7% | Observed control in % (% Cobs) [1, 6]: 3.5% and 5.1% | Observed control in % (% Cobs) [1, 11]: 51.3% and 56.5% | Observed control in % (% Cobs) [4, 5]: 1.4% and 0.3% and 1.6% and 3.4% | Observed control in % (% Cobs) [4, 10]: 3.7% and 5.3% and 6.3% | Observed control in % (% Cobs) [4, 6]: 14.9% and 13.0% and 15.1% and 13.7% | Observed control in % (% Cobs) [4, 7]: 59.1% and 67.2% and 58.5% and 80.1% | Observed control in % (% Cobs) [2, 11]: 13.3% and 7.0% | Observed control in % (% Cobs) [2, 12]: 28.4% and 39.9% | Observed control in % (% Cobs) ([2]; single active ingredient 1.0 mg/L (ppm ai)): 38.8% | melting point: 182 to 183 °C

Fc1ccc([C@]2(Cn3cncn3)O[C@H]2c2ccccc2Cl)cc1 (racemic) [Epoxiconazole, epoxiconazole]
Observed control in % (% Cobs) [4, 6]: 6.8% | Observed control in % (% Cobs) [4, 7]: 18.0% | Observed control in % (% Cobs) [4, 11]: 36.8% | Observed control in % (% Cobs) [4, 12]: 51.8% | Observed control in % (% Cobs) [2, 6]: 0.0% | Observed control in % (% Cobs) [2, 7]: 24.3% | Observed control in % (% Cobs) [2, 11]: 28.9%

CC(C1CC1)C(O)(Cn1cncn1)c1ccc(Cl)cc1 (centres unmarked) [Cyproconazole, cyproconazole]
Observed control in % (% Cobs) [4, 8]: 2.3% | Observed control in % (% Cobs) [4, 9]: 2.8% | Observed control in % (% Cobs) [4, 5]: 4.7% | Observed control in % (% Cobs) [4, 10]: 1.9% | Observed control in % (% Cobs) [4, 6]: 0.6% | Observed control in % (% Cobs) [3, 6]: 0.0% | Observed control in % (% Cobs) [3, 7]: 0.0% | Observed control in % (% Cobs) [3, 11]: 15.1%

COc1nnc(C)c(-c2ccc(Cl)nc2)c1-c1c(F)cc(F)cc1F [Compound A-1.3, 4-(6-chloro-pyridin-3-yl)-6-methoxy-3-methyl-5-(2,4,6-trifluoro-phenyl)-pyridazine]
melting point: 123 to 124 °C

OC(Cc1ccccc1Cl)(Cn1nc[nH]c1=S)C1(Cl)CC1 (centres unmarked) [Prothioconazole, prothioconazole]
Observed control in % (% Cobs) [1, 5]: 22.0% | Observed control in % (% Cobs) [1, 10]: 59.1% | Observed control in % (% Cobs) [3, 6]: 28.9% | Observed control in % (% Cobs) [3, 7]: 50.1% | Observed control in % (% Cobs) [3, 11]: 66.6%

CO/C=C(/C(=O)OC)c1ccccc1Oc1cc(Oc2ccccc2C#N)ncn1 [Azoxystrobin, azoxystrobin]
Observed control in % (% Cobs) [1, 10]: 44.8% | Observed control in % (% Cobs) [1, 6]: 76.4%
